Laboratory results reported in patent US20230183219A1, “CONDENSED SUBSTITUTED HYDROPYRROLES AS ANTAGONISTS OF THE MUSCARINIC ACETYLCHOLINE RECEPTOR M4” (Vanderbilt University, priority 2020, published 2023).

Target: T1, Human M4 (Homo sapiens, UniProt P08173)
T1 construct: Human or rat M4 cDNA, along with the chimeric G protein Gqi5, were transfected into Chinese hamster ovary (CHO-K1) cells; expressed in transfected cells; host or cells: CHO-K1 (Chinese hamster ovary, ATCC), stably co-expressing Gqi5
T1 sequence (P08173 1-479): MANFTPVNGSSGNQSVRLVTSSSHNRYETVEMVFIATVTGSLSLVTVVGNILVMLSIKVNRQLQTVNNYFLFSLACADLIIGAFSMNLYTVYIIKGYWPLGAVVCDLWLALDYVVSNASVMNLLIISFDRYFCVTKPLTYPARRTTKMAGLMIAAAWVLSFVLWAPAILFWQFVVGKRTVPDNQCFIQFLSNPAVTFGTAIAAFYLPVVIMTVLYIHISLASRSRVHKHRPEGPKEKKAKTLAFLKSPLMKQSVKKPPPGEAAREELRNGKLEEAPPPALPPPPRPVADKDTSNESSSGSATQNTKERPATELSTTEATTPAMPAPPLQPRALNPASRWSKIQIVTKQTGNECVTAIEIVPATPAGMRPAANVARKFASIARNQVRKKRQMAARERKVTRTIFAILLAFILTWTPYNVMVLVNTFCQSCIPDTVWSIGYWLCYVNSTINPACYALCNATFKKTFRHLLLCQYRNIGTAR
Assay: mAChR M4 cell-based functional assay (calcium flux, decrease of EC80 acetylcholine response)
Settings: for remaining activity at 30 µM: % ACh maximum at 30 μM, read-out: Human M4 Emin; for IC50: M4/Gqi5/CHO-K1 cells, decrease of response to EC80 acetylcholine
Summary of the method: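 CHO-K1 cells stably co-expressing M4 and chimeric Gqi5, loaded with Fluo-4 AM; calcium flux read on FDSS. Compound added at 2 s, EC20 acetylcholine at 143 s, EC80 acetylcholine at 268 s. IC50 from concentration-dependent decrease of the EC80 response, four-parameter logistic fit; 10-point 1:3 titrations.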

Row | SMILES | remaining activity at 30 µM [%] | IC50 [nM]
1 | [2H]C([2H])(C1CCOCC1)N1C[C@H]2C[C@H](Nc3nnc(-c4ccc5c(c4)OCC5)cc3C(F)(F)F)C[C@H]2C1 [Example 123, (3aR,5s,6aS)-N-(6-(2,3-dihydro-benzofuran-6-yl)-4-(trifluoro-methyl)pyridazin-3-yl)-2-((tetrahydro-2H-pyran-4-yl)methyl-d2)octahydro-cyclopenta[c]pyrrol-5-amine] | 3 | 55.3
2 | [2H]C([2H])(C1CCOCC1)N1C[C@H]2C[C@H](Nc3nnc(-c4cc(F)cc(F)c4F)cc3C(F)(F)F)C[C@H]2C1 [Example 124, (3aR,5s,6aS)-2-((tetrahydro-2H-pyran-4-yl)methyl-d2)-N-(4-(trifluoromethyl)-6-(2,3,5-trifluorophenyl)pyridazin-3-yl)octahydrocyclopenta[c]pyrrol-5-amine] | 3 | 173
3 | [2H]C([2H])(C1CCOCC1)N1C[C@H]2C[C@H](Nc3nnc(-c4cc(F)c(F)cc4F)cc3C(F)(F)F)C[C@H]2C1 [Example 125, (3aR,5s,6aS)-2-((tetrahydro-2H-pyran-4-yl)methyl-d2)-N-(4-(trifluoromethyl)-6-(2,4,5-trifluorophenyl)pyridazin-3-yl)octahydro-cyclopenta[c]pyrrol-5-amine] | 4 | 342
4 | [2H]C([2H])(C1CCOCC1)N1C[C@H]2C[C@H](Nc3nnc(-c4ccc(C)cc4C)cc3C(F)(F)F)C[C@H]2C1 [Example 126, (3aR,5s,6aS)-N-(6-(2,4-dimethyl-phenyl)-4-(trifluoro-methyl)pyridazin-3-yl)-2-((tetrahydro-2H-pyran-4-yl)methyl-d2)octahydro-cyclopenta[c]pyrrol-5-amine] | 3 | 94.2
5 | [2H][C@@]1(Nc2nnc(-c3cccc(F)c3)cc2C(F)(F)F)C[C@H]2CN(CC3CCOCC3)C[C@H]2C1 [Example 127, (3aR,5s,6aS)-N-(6-(3-fluoro-phenyl)-4-(trifluoromethyl)pyridazin-3-yl)-2-((tetrahydro-2H-pyran-4-yl)methyl)octahydro-cyclopenta[c]pyrrol-5-d-5-amine] | 3 | 64.7
6 | [2H][C@@]1(Nc2nnc(-c3ccc4nn(C)cc4c3)cc2C(F)(F)F)C[C@H]2CN(CC3CCOCC3)C[C@H]2C1 [Example 128, (3aR,5s,6aS)-N-(6-(2-methyl-2H-indazol-5-yl)-4-(trifluoro-methyl)pyridazin-3-yl)-2-((tetrahydro-2H-pyran-4-yl)methyl)octahydro-cyclopenta[c]pyrrol-5-d-5-amine] | 3 | 13.2
7 | [2H]C([2H])(C1CCOCC1)N1C[C@H]2C[C@H](Nc3cc(C(F)(F)F)c(-c4cc(F)ccc4Cl)nn3)C[C@H]2C1 [Example 129, (3aR,5s,6aS)-N-(6-(2-chloro-5-fluorophenyl)-5-(trifluoro-methyl)pyridazin-3-yl)-2-((tetrahydro-2H-pyran-4-yl)methyl-d2)octahydrocyclopenta[c]pyrrol-5-amine] | 2 | 2.3
8 | [2H]C([2H])([2H])N(c1cc(C(F)(F)F)c(-c2cc(F)ccc2C)nn1)[C@H]1C[C@@H]2CN(CC3CCOCC3)C[C@@H]2C1 [Example 131, (3aR,5s,6aS)-N-(6-(5-fluoro-2-methylphenyl)-5-(trifluoromethyl)pyridazin-3-yl)-N-(methyl-d3)-2-((tetrahydro-2H-pyran-4-yl)methyl)octahydro-cyclopenta[c]pyrrol-5-amine] | 2 | 60.3
9 | Cc1ccc(F)cc1-c1cc(C(F)(F)F)c(O[C@H]2C[C@@H]3CN(CC4CCOCC4)C[C@@H]3C2)nn1 [Example 132, (3aR,5s,6aS)-5-((6-(5-fluoro-2-methylphenyl)-4-(trifluoromethyl)pyridazin-3-yl)oxy)-2-((tetrahydro-2H-pyran-4-yl)methyl)octahydro-cyclopenta[c]pyrrole] | 3 | 592
10 | [2H][C@@]1(Oc2cc(C(F)(F)F)c(-c3cc(F)ccc3C)nn2)C[C@H]2CN(CC3CCOCC3)C[C@H]2C1 [Example 133, (3aR,5s,6aS)-5-((6-(5-fluoro-2-methylphenyl)-5-(trifluoromethyl)pyridazin-3-yl)oxy)-2-((tetrahydro-2H-pyran-4-yl)methyl)octahydro-cyclopenta[c]pyrrole-5-d] | 3 | 217
11 | [2H][C@@]1(Oc2nnc(-c3cc(F)ccc3C)cc2C(F)(F)F)C[C@H]2CN(Cc3ccccn3)C[C@H]2C1 [Example 134, (3aR,5s,6aS)-5-((6-(5-fluoro-2-methylphenyl)-4-(trifluoro-methyl)pyridazin-3-yl)oxy)-2-(pyridin-2-ylmethyl)octahydro-cyclopenta[c]pyrrole-5-d] | 6 | 2830
12 | [2H][C@@]1(Oc2nnc(-c3cc(F)ccc3C)cc2C(F)(F)F)C[C@H]2CN(CC3CCOCC3)C[C@H]2C1 [Example 135, (3aR,5s,6aS)-5-((6-(5-fluoro-2-methylphenyl)-4-(trifluoro-methyl)pyridazin-3-yl)oxy)-2-((tetrahydro-2H-pyran-4-yl)methyl)octahydro-cyclopenta[c]pyrrole-5-d] | 4 | 622
13 | C[C@@H]1CCCN(c2cc(C(F)(F)F)c(N[C@H]3C[C@@H]4CN(CC5CCOCC5)C[C@@H]4C3)nn2)C1 [Example 136, (3aR,5s,6aS)-N-(6-((R)-3-methylpiperidin-1-yl)-4-(trifluoromethyl)pyridazin-3-yl)-2-((tetrahydro-2H-pyran-4-yl)methyl)octahydro-cyclopenta[c]pyrrol-5-amine] | 2 | 20.6
14 | C[C@H]1CCCN(c2cc(C(F)(F)F)c(N[C@H]3C[C@@H]4CN(CC5CCOCC5)C[C@@H]4C3)nn2)C1 [Example 137, (3aR,5s,6aS)-N-(6-((S)-3-methylpiperidin-1-yl)-4-(trifluoro-methyl)pyridazin-3-yl)-2-((tetrahydro-2H-pyran-4-yl)methyl)octahydro-cyclopenta[c]pyrrol-5-amine] | 2 | 14.3
15 | FC1(F)CCCN(c2cc(C(F)(F)F)c(N[C@H]3C[C@@H]4CN(CC5CCOCC5)C[C@@H]4C3)nn2)C1 [Example 138, (3aR,5s,6aS)-N-(6-(3,3-difluoro-piperidin-1-yl)-4-(trifluoro-methyl)pyridazin-3-yl)-2-((tetrahydro-2H-pyran-4-yl)methyl)octahydro-cyclopenta[c]pyrrol-5-amine] | 2 | 21.2
16 | F[C@H]1CCN(c2cc(C(F)(F)F)c(N[C@H]3C[C@@H]4CN(CC5CCOCC5)C[C@@H]4C3)nn2)C1 [Example 139, (3aR,5s,6aS)-N-(6-((S)-3-fluoropyrrolidin-1-yl)-4-(trifluoromethyl)pyridazin-3-yl)-2-((tetrahydro-2H-pyran-4-yl)methyl)octahydro-cyclopenta[c]pyrrol-5-amine] | 2 | 7.2
17 | F[C@@H]1CCN(c2cc(C(F)(F)F)c(N[C@H]3C[C@@H]4CN(CC5CCOCC5)C[C@@H]4C3)nn2)C1 [Example 140, (3aR,5s,6aS)-N-(6-((R)-3-fluoropyrrolidin-1-yl)-4-(trifluoromethyl)pyridazin-3-yl)-2-((tetrahydro-2H-pyran-4-yl)methyl)octahydro-cyclopenta[c]pyrrol-5-amine] | 2 | 9.2
18 | FC1(F)CCN(c2cc(C(F)(F)F)c(N[C@H]3C[C@@H]4CN(CC5CCOCC5)C[C@@H]4C3)nn2)C1 [Example 141, (3aR,5s,6aS)-N-(6-(3,3-difluoropyrrolidin-1-yl)-4-(trifluoromethyl)pyridazin-3-yl)-2-((tetrahydro-2H-pyran-4-yl)methyl)octahydro-cyclopenta[c]pyrrol-5-amine] | 2 | 8.3
19 | FC(F)(F)c1cc(N2CCCC2)nnc1N[C@H]1C[C@@H]2CN(CC3CCOCC3)C[C@@H]2C1 [Example 142, (3aR,5s,6aS)-N-(6-(pyrrolidin-1-yl)-4-(trifluoro-methyl)pyridazin-3-yl)-2-((tetrahydro-2H-pyran-4-yl)methyl)octahydro-cyclopenta[c]pyrrol-5-amine] | 2 | 3
20 | FC(F)(F)c1cc(N2CCOCC2)nnc1N[C@H]1C[C@@H]2CN(CC3CCOCC3)C[C@@H]2C1 [Example 143, (3aR,5s,6aS)-N-(6-morpholino-4-(trifluoromethyl)pyridazin-3-yl)-2-((tetrahydro-2H-pyran-4-yl)methyl)octahydro-cyclopenta[c]pyrrol-5-amine] | 2 | 35.1
